Reference: patent publication US8906868B2, “Aminoglycoside derivatives” (Rempex Pharmaceuticals, Inc., priority 2010, dated 2014)
Converted amounts (≈) assume the structure as drawn. Like-named read-outs stand apart in the source and are kept apart here.

What was measured:
[1] = test system: Escherichia coli (ATCC 25922); assay: MIC, broth microdilution; conditions: for MIC: Escherichia coli
ACM1005 ATCC 19004 = assay: MIC, broth microdilution; format: cell-based, Acinetobacter baumannii; conditions: Table 4
Procedure: (§1) To compare microbiological activity of the test compounds, minimum inhibitory concentrations (MIC.s) were determined. Antibiotic MICs were obtained using the broth microdilution method according to Clinical and Laboratory Standards Institute (CLSI) approved guidelines (Methods for dilution antimicrobial susceptibility tests for bacteria that grow aerobically; approved standard—7th ed. CLSI document M7-A7. Clinical and Laboratory Standards Institute, Wayne, Pa., incorporated herein by reference in its entirety). Antibiotics were dissolved as specified by CLSI (Performance standards for antimicrobial susceptibility testing; Seventeenth informational supplement. CLSI document M100-S17. Clinical and Laboratory Standards Institute, Wayne, Pa., incorporated herein by reference in its entirety), and were serially diluted 2-fold in cation adjusted Mueller Hinton Broth (CaMHB) at 2× concentration. Bacterial inoculums were prepared in CaMHB by suspension of a colony from an agar plate that was prepared the previous day to obtain a final concentration of 5×10^5CFU/ml. The plates were incubated for 18 hours at 35° C. […] MIC.s were determined by reading the turbidity of plate wells using a SpectraMax Plus384 plate reader (Molecular Devices, Sunnyvale, Calif., USA) at 600 nm and were confirmed by visual inspection.

[2] = test system: Pseudomonas aeruginosa (ATCC 27853); assay: MIC, broth microdilution; conditions: Pseudomonas aeruginosa
[3] = test system: ECM6007 aac(6′) + aph(2″); assay: microbe, parasite or virus in culture; format: cell-based, Escherichia coli; conditions: Table 4; for MIC: Escherichia coli, 18 h, read-out: Compound MIC on Bacterial Strains: Escherichia coli ECM6007 aac(6′) + aph(2″)
Procedure: as §1

EC1001 acc(6′)-Ib = assay: microbe, parasite or virus in culture; format: cell-based, Escherichia coli; conditions: Table 4; for MIC: Escherichia coli, read-out: Compound MIC on Bacterial Strains: Escherichia coli EC1001 acc(6′)-Ib
Procedure: as §1

[4] = test system: Staphylococcus aureus (ATCC 29213); assay: MIC, broth microdilution; conditions: Staphylococcus aureus
ACM1006 acc(6′)-Ib = assay: microbe, parasite or virus in culture; format: cell-based, Acinetobacter baumannii; conditions: Table 4
Procedure: as §1

[5] = test system: Acinetobacter baumannii (ATCC 19606); assay: MIC, broth microdilution; conditions: Acinetobacter baumannii, ATCC19606, read-out: Compound MIC on Bacterial Strains: A. baumannii ATCC 19606
[6] = test system: Klebsiella pneumonia (ATCC 43816); assay: MIC, broth microdilution; conditions: Klebsiella pneumoniae, ATCC43816, read-out: Compound MIC on Bacterial Strains: K. pneumonia ATCC 43816
PAM3072 aac(6′)-II = assay: microbe, parasite or virus in culture; format: cell-based, Pseudomonas aeruginosa; conditions: Pseudomonas aeruginosa, Table 5; read-out: Compound MIC on Bacterial Strains: Pseudomonas aeruginosa PAM3072 aac(6′)-II
Procedure: as §1

PAM3073 aac(6′)-I = assay: microbe, parasite or virus in culture; format: cell-based, Pseudomonas aeruginosa; conditions: Pseudomonas aeruginosa, Table 5; read-out: Compound MIC on Bacterial Strains: Pseudomonas aeruginosa PAM3073 aac(6′)-I
Procedure: as §1

ECM6009 aac(3)-II = assay: microbe, parasite or virus in culture; format: cell-based, Escherichia coli; conditions: for MIC: Escherichia coli, read-out: Compound MIC on Bacterial Strains: ECM6009 aac(3)-II
Procedure: as §1
(§2) Activity of the test compounds was determined using QC strains and strains with known aminoglycoside resistance mechanisms (TABLE 3). This specific panel contained strains expressing enzymes that covalently modify N2″, N3 and N3′ positions.

ECM6011 aph(3′)-I = assay: microbe, parasite or virus in culture; format: cell-based, Escherichia coli; conditions: for MIC: Escherichia coli, read-out: Compound MIC on Bacterial Strains: ECM6011 aph(3′)-I
Procedure: as §1, §2

ECM6006 aph(3′)-III = assay: microbe, parasite or virus in culture; format: cell-based, Escherichia coli; conditions: for MIC: Escherichia coli, read-out: Compound MIC on Bacterial Strains: ECM6006 aph(3′)-III
Procedure: as §1, §2

ECM6010 ant(2″)-I = assay: microbe, parasite or virus in culture; format: cell-based, Escherichia coli; conditions: for MIC: Escherichia coli, read-out: Compound MIC on Bacterial Strains: ECM6010 ant(2″)-I
Procedure: as §1, §2

ECM6003 rmtB = assay: microbe, parasite or virus in culture; format: cell-based, Escherichia coli; conditions: for MIC: Escherichia coli, read-out: Compound MIC on Bacterial Strains: ECM6003 rmtB
Procedure: as §1, §2
The panel also contained a strain expressing ribosomal RNA methylase, RmtB.

EC1002 aph(3′)-IV = assay: organism not typed; format: cell-based; conditions: for MIC: read-out: Compound MIC on Bacterial Strains: EC1002 aph(3′)-IV
Procedure: as §1, §2

[7] = ATCC25922, read-out: Compound MIC on Bacterial Strains: E. coli ATCC 25922
[8] = ATCC25922, read-out: Compound MIC on Bacterial Strains: Escherichia coli ECM6000 ATCC 25922
[9] = ATCC27853, read-out: Compound MIC on Bacterial Strains: P. aeruginosa ATCC 27853
[10] = ATCC29213, read-out: Compound MIC on Bacterial Strains: S. aureus ATCC 29213, QC strain, Table 2
[11] = ATCC25922, read-out: Compound MIC on Bacterial Strains: ECM6000 ATCC 25922
[12] = ATCC27853, read-out: Compound MIC on Bacterial Strains: Pseudomonas aeruginosa PAM3034 ATCC 27853
[13] = ATCC29213, read-out: Compound MIC on Bacterial Strains: Staphylococcus aureus SAM1000 ATCC 29213, Table 5

Row | SMILES | MIC [1, 7] [µg/mL] | MIC [1, 8] [µg/mL] | MIC [2, 9] [µg/mL] | MIC [3] [µg/mL] | MIC (EC1001 acc(6′)-Ib) [µg/mL] | MIC [4, 10] [µg/mL] | MIC [5] [µg/mL] | MIC [6] [µg/mL] | MIC (PAM3072 aac(6′)-II) [µg/mL] | MIC (PAM3073 aac(6′)-I) [µg/mL] | MIC [1, 11] [µg/mL] | MIC [2, 12] [µg/mL] | MIC (ECM6009 aac(3)-II) [µg/mL] | MIC (ECM6011 aph(3′)-I) [µg/mL] | MIC (ECM6006 aph(3′)-III) [µg/mL] | MIC (ECM6010 ant(2″)-I) [µg/mL] | MIC (ECM6003 rmtB; Table 3) [µg/mL] | MIC (EC1002 aph(3′)-IV) [µg/mL] | MIC [4, 13] [µg/mL] | further results
1 | CN[C@@H]1[C@@H](O)[C@@H](O[C@@H]2[C@@H](O)[C@H](O[C@H]3O[C@H](CN)CC[C@H]3N)[C@@H](N)C[C@H]2NC(=O)[C@@H](O)[C@H](N)CN)OC[C@]1(C)O [Compound 3, (2S,3R)-3,4-diamino-N-((1R,2S,3S,4R,5S)-5-amino-4-((2R,3R,6S)-3-amino-6-(aminomethyl)tetrahydro-2H-pyran-2-yloxy)-2-((2R,3R,4R,5R)-3,5-dihydroxy-5-methyl-4-(methylamino)tetrahydro-2H-pyran-2-yloxy)-3-hydroxycyclohexyl)-2-hydroxybutanamide] | < 1 | 1 to 8 (≈ 1.77 to 14.1 µM) | < 1 | < 1 | > 8 | < 1 | > 8 | < 1 |  |  |  |  |  |  |  |  |  |  |  | MIC (ACM1005 ATCC 19004; Acinetobacter baumannii, ATCC19004, read-out: Compound MIC on Bacterial Strains: Acinetobacter baumannii ACM1005 ATCC 19004): 1 to 8 µg/mL (≈ 1.77 to 14.1 µM); MIC (ACM1006 acc(6′)-Ib; Acinetobacter baumannii, read-out: Compound MIC on Bacterial Strains: Acinetobacter baumannii ACM1006 acc(6′)-Ib): 1 to 8 µg/mL (≈ 1.77 to 14.1 µM)
2 | CN[C@@H]1[C@@H](O)[C@@H](O[C@@H]2[C@@H](O)[C@H](O[C@H]3O[C@H](CNCCO)CC[C@H]3N)[C@@H](N)C[C@H]2NC(=O)[C@@H](O)CNN)OC[C@]1(C)O [Compound 41, (S)—N-((1R,2S,3S,4R,5S)-5-amino-4-((2R,3R,6S)-3-amino-6-((2-hydroxyethylamino)methyl)tetrahydro-2H-pyran-2-yloxy)-2-((2R,3R,4R,5R)-3,5-dihydroxy-5-methyl-4-(methylamino)tetrahydro-2H-pyran-2-yloxy)-3-hydroxycyclohexyl)-3-hydrazinyl-2-hydroxypropanamide] | 1 to 8 (≈ 1.68 to 13.4 µM) | 1 to 8 (≈ 1.68 to 13.4 µM) | > 8 | 1 to 8 | > 8 | 1 to 8 (≈ 1.68 to 13.4 µM) | > 8 | 1 to 8 (≈ 1.68 to 13.4 µM) | > 8 | > 8 | 1 to 8 (≈ 1.68 to 13.4 µM) | > 8 | > 8 | 1 to 8 (≈ 1.68 to 13.4 µM) | > 8 | 1 to 8 (≈ 1.68 to 13.4 µM) | > 8 | 1 to 8 (≈ 1.68 to 13.4 µM) | 1 to 8 (≈ 1.68 to 13.4 µM) | 
3 | CNC[C@@H]1CC[C@@H](N)[C@@H](O[C@H]2[C@H](O)[C@@H](O[C@H]3OC[C@](C)(O)[C@H](NC)[C@H]3O)[C@H](N)C[C@@H]2N)O1 [Micronomicin, reference compound] |  |  |  |  |  |  |  |  |  |  |  |  |  |  |  |  |  |  |  | Compound MIC on Bacterial Strains: ECM6000 ATCC 25922 ([1]; Table 3): A (MIC of 1 μg/ml or less); Compound MIC on Bacterial Strains: Escherichia coli ECM6000 ATCC 25922 ([1]; Table 4): A (MIC of 1 μg/ml or less); Compound MIC on Bacterial Strains: Acinetobacter baumannii ACM1005 ATCC 19004 (ACM1005 ATCC 19004): A (MIC of 1 μg/ml or less); Compound MIC on Bacterial Strains: ECM6009 aac(3)-II (ECM6009 aac(3)-II): C (key: A: MIC of 1 μg/ml or less; B: MIC of greater than 1 μg/ml to 8 μg/ml; MIC of greater than 8 μg/ml); Compound MIC on Bacterial Strains: ECM6011 aph(3′)-I (ECM6011 aph(3′)-I): B (key: A: MIC of 1 μg/ml or less; B: MIC of greater than 1 μg/ml to 8 μg/ml; MIC of greater than 8 μg/ml); Compound MIC on Bacterial Strains: ECM6006 aph(3′)-III (ECM6006 aph(3′)-III): B (key: A: MIC of 1 μg/ml or less; B: MIC of greater than 1 μg/ml to 8 μg/ml; MIC of greater than 8 μg/ml); Compound MIC on Bacterial Strains: ECM6010 ant(2″)-I (ECM6010 ant(2″)-I): C (key: A: MIC of 1 μg/ml or less; B: MIC of greater than 1 μg/ml to 8 μg/ml; MIC of greater than 8 μg/ml); Compound MIC on Bacterial Strains: ECM6003 rmtB (ECM6003 rmtB; Table 3): C (MIC of greater than 8 μg/ml); Compound MIC on Bacterial Strains: Escherichia coli ECM6007 aac(6′) + aph(2″) [3]: B (MIC of greater than 1 μg/ml to 8 μg/ml); Compound MIC on Bacterial Strains: Escherichia coli EC1001 acc(6′)-Ib (EC1001 acc(6′)-Ib): C (MIC of greater than 8 μg/ml); Compound MIC on Bacterial Strains: EC1002 aph(3′)-IV (EC1002 aph(3′)-IV): A (key: A: MIC of 1 μg/ml or less; B: MIC of greater than 1 μg/ml to 8 μg/ml; MIC of greater than 8 μg/ml); Compound MIC on Bacterial Strains: Acinetobacter baumannii ACM1006 acc(6′)-Ib (ACM1006 acc(6′)-Ib): C (MIC of greater than 8 μg/ml)
4 | NC[C@@H]1CCC(N)[C@@H](OC2C(O)C(O[C@H]3OC(CO)C(O)[C@H](N)C3O)[C@H](NC(=O)C3(O)CNNC3)C[C@@H]2N)O1 (stereo partly shown) [Compound 28] |  |  |  |  |  |  |  |  |  |  |  |  |  |  |  |  |  |  |  | fold increased resistance conferred by RmtB (ECM6003 rmtB; strain expressing ribosomal RNA methylase RmtB): 8 fold
5 | CN[C@@H]1[C@@H](O)[C@@H](O[C@@H]2[C@@H](O)[C@H](O[C@H]3O[C@H](CN)CC[C@H]3N)[C@@H](N)C[C@H]2NC(=O)[C@@H](O)[C@H](N)CO)OC[C@]1(C)O [Compound 20, (2S,3R)-3-amino-N-((1R,2S,3S,4R,5S)-5-amino-4-((2R,3R,6S)-3-amino-6-(aminomethyl)tetrahydro-2H-pyran-2-yloxy)-2-((2R,3R,4R,5R)-3,5-dihydroxy-5-methyl-4-(methylamino)tetrahydro-2H-pyran-2-yloxy)-3-hydroxycyclohexyl)-2,4-dihydroxybutanamide] | 1 to 8 (≈ 1.76 to 14.1 µM) |  | 1 to 8 (≈ 1.76 to 14.1 µM) |  |  | 1 to 8 (≈ 1.76 to 14.1 µM) | > 8 | < 1 | > 8 | > 8 | 1 to 8 (≈ 1.76 to 14.1 µM) | 1 to 8 (≈ 1.76 to 14.1 µM) | < 1 | 1 to 8 (≈ 1.76 to 14.1 µM) | 1 to 8 (≈ 1.76 to 14.1 µM) | 1 to 8 (≈ 1.76 to 14.1 µM) | > 8 | 1 to 8 (≈ 1.76 to 14.1 µM) | 1 to 8 (≈ 1.76 to 14.1 µM) | 
